LD50 and IC50 data for 9 compounds are collected here from patent US10561681B2, “Antimetastatic 2H-selenopheno[3,2-h]chromenes, synthesis thereof, and methods of using same agents” (Latvian Institute of Organic Synthesis, priority 2016, dated 2020).

Format in all cases: cell-based
The nature of data set [1]: Basal cytotoxicity test, Neutral Red Uptake (NRU) assay. The settings on record: for LD50 at 24 h: mouse, po, acute oral LD50 calculated from 3T3 NRU IC50 by regression formula, read-out: Basal cytotoxicity Estimated* LD50; for IC50 at 24 h: normal mouse embryo fibroblasts, read-out: Cytotoxicity IC50, 3T3. As to the method:
In parallel, the borderline concentration relevant to the highest tolerated dose has been determined for each compound using the NIH 3T3 (mouse embryo fibroblasts) cell line and the basal cytotoxicity obtained has then been used to predict the starting doses for in vivo acute oral LD50 values in rodents.
the Neutral Red Uptake (NRU) assay was performed according to the standard protocol of Stokes modified by the NICEATM-ECVAM validation study. The NRU cytotoxicity assay procedure is based on the ability of viable cells to incorporate and bind Neutral Red, a supravitally dye. Balb/c 3T3 (Mouse Swiss Albino embryo fibroblast) cells (9000 cells/well) were placed into 96-well plates for 24 h in Dulbecco's modified Eagle's (DMEM) medium containing 5% fetal bovine serum. The cells were then exposed to the test compounds over a range of […] concentrations (1000, 316, 100, 31, 10, 3, 1 μg/ml) for 24 h. Untreated cells were used as a control. After 24 h, the medium was removed from all plates. Then, 250 μL of Neutral Red solution were added (0.05 mg/mL NR in DMEM 24 h pre-incubated at 37° C. and then filtered before use through 0.22-μm syringe filter). Plates were incubated for 3 h and then cells were washed three times with PBS. The dye within viable cells was released by extraction with a mixture of acetic acid, ethanol and water (1:50:49). Absorbance of Neutral Red was measured using a spectrophotometer multiplate reader (TECAN, Infinite M1000) at 540 nm. The percentage of living cells was calculated using the formula: OD (treated cells)*100/OD (control cells). The IC50 values were calculated using the programme Graph Pad Prism® 3.0.
Data from the in vitro tests were used for estimating the starting dose for acute oral systemic toxicity tests in rodents. […] The value is recalculated to mg/kg and compounds are evaluated in accordance with four toxicity categories: category 1: LD50≤5 mg/kg (highly toxic); category 2: 5<LD50≤50 mg/kg (moderately toxic); category 3: 50<LD50≤300 mg/kg (slightly toxic); category 4: 300<LD50≤2 000 mg/kg (practically non-toxic).

In data set [2] the test system is CCL-8 (mouse sarcoma). Kind of data set: In vitro cytotoxicity, MTT test. The settings on record: 72 h, read-out: Cytotoxicity IC50, CCL-8. As for the experimental part:
(§1) Anticancer activity of selenopheno[h]chromenes was tested in vitro using cytotoxicity assay. […] About 2-9·10^4 cells/mL (depending on line nature) were placed in 96-well plates immediately after compounds were added to the wells. Untreated cells were used as a control. The plates were incubated for 72 h, 37° C., 5% CO2. The number of surviving cells was determined using 3-(4,5-dimethylthiazol-2-yl)-2,5-diphenyltetrazolinium bromide (MTT). MTT-test: after incubating culture medium was removed and 200 μL fresh medium with 10 mM HEPES was added in each well of the plate, than 20 μL MTT (2 mg/mL in HBSS) was added. After incubation (3 hr, 37° C., 5% CO2), the medium with MTT was removed and 200 μL DMSO were added at once to each sample. The samples were tested at 540 nm on Anthos HT II photometer.
(Tetrazolium assays rely on reduction of a dye to a coloured formazan, in cell work by metabolically active cells.)

The test system of data set [3] is HT-1080 (human fibrosarcoma). The experiment in a line: In vitro cytotoxicity, MTT test. To be noted: HT-1080, MTT, 72 h, read-out: Cytotoxicity IC50, HT-1080. As to the method:
as §1

Data set [4] has as its system MCF-7 (human breast adenocarcinoma, estrogen-positive). The experiment in a line: In vitro cytotoxicity, MTT test. The settings on record: MCF7, MTT, 72 h, read-out: Cytotoxicity IC50, MCF-7. As for the experimental part:
as §1

For data set [5], the system named is A549 (human lung carcinoma). Kind of data set: In vitro cytotoxicity, MTT test. The settings on record: MTT, 72 h, read-out: Cytotoxicity IC50, A549. As to the method: as §1
Data set [6] concerns MG-22A (mouse hepatoma). The experiment in a line: In vitro cytotoxicity, MTT test. To be noted: MTT, 72 h, read-out: Cytotoxicity IC50, MG-22A. As to the method:
as §1

For data set [7], the system named is MDA-MB-435s (human melanoma). Kind of data set: In vitro cytotoxicity, MTT test. To be noted: MTT, 72 h, read-out: Cytotoxicity IC50, MDA-MB-435s. As to the method: as §1
Data set [8] relates to HepG2 (human hepatocellular carcinoma). Kind of data set: In vitro cytotoxicity, MTT test. The settings on record: HepG2, MTT, 72 h, read-out: Cytotoxicity IC50, HepG2. As for the experimental part:
as §1

In data set [9] the test system is SH-SY5Y (human neuroblastoma). The experiment in a line: In vitro cytotoxicity, MTT test. The settings on record: 72 h, MTT, read-out: Cytotoxicity IC50, SHSY5Y. As to the method:
as §1

The subject of data set [10] is MES-SA (human uterus sarcoma). The experiment in a line: In vitro cytotoxicity, MTT test. To be noted: MTT, 72 h, read-out: Cytotoxicity IC50, MES-SA. As for the experimental part:
as §1

Molecules are shown by their SMILES. “And” between values parts separate entries of the source, which are not always exact repeats. Equal entries are not always repeated. Where two headings read alike, the source gives them in different places.

As a reminder, the LD50 is the dose expected to kill half of the subjects tested. By IC50 is commonly meant the point on the concentration scale where inhibition reaches its midpoint. On to `COC(=O)c1cc2ccc3c(Br)c(C(C)(C)O)[se]c3c2oc1=O` [Compound I-1, Methyl 7-bromo-8-(2-hydroxypropan-2-yl)-2-oxo-2H-selenopheno[3,2-h]chromene-3-carboxylate], for which the LD50 at 24 h in data set [1] is > 6000 µmol/kg and > 2660 mg/kg. For the same compound, the IC50 at 24 h in data set [1] stood at 225 ± 11 µM. The IC50 in [2] (MTT) is above 225 µM; in [3], 225 ± 11 µM; in [4], 221 ± 13 µM; in [5] (Homo sapiens, A549, 72 h) it was 196 ± 9 µM; in data set [6], above 122 µM; in [7] it was 95 ± 8 µM. Also, the IC50 in [8] is above 117 µM; in data set [9] (Homo sapiens, SH-SY5Y), 32 µM; in [10], 95 ± 9 µM.

For `COC(=O)c1cc2ccc3c(Br)c(C4=CCCC4)[se]c3c2oc1=O` [Compound I-2, Methyl 7-bromo-8-(cyclopent-1-en-1-yl)-2-oxo-2H-selenopheno[3,2-h]chromene-3-carboxylate], in data set [1], the LD50 at 24 h was 500 µmol/kg and 194 mg/kg. In addition, the IC50 at 24 h in data set [1] is above 235 µM. In addition, the IC50 in [2] (MTT) is 82 ± 8 µM; in [3], 110 ± 12 µM; in data set [4], 281 ± 12 µM; in data set [5] (Homo sapiens, A549, 72 h) it was 122 ± 8 µM; in [6], above 235 µM; in [7] it was 142 ± 12 µM. The IC50 is 197 ± 24 µM in data set [8]; above 117 µM in data set [9] (Homo sapiens, SH-SY5Y); 155 ± 3 µM in data set [10].

As to `COC(=O)c1cc2ccc3c(Br)c(C4(O)CCCCC4)[se]c3c2oc1=O` [Compound I-3, Methyl 7-bromo-8-(1-hydroxycyclohexyl)-2-oxo-2H-selenopheno[3,2-h]chromene-3-carboxylate], in [1], the LD50 at 24 h was above 5600 µmol/kg. The IC50 at 24 h in data set [1] was found to be 207 ± 9 µM. For the same compound, the IC50 in data set [2] (MTT) is 186 ± 9 µM; in [3], 27 ± 1 µM; in data set [4], 29 ± 2 µM; in data set [5] (Homo sapiens, A549, 72 h) it was at most 19 µM; in [5] it was 19 ± 2 µM; in [6], 33 ± 6 µM. Moreover, the IC50 in data set [7] is 64 ± 6 µM; in data set [8], above 117 µM; in [9] (Homo sapiens, SH-SY5Y) it was at most 19 µM; in [9] it was 19 ± 3 µM; in data set [10] it was 66 ± 3 µM.

Regarding `COC(=O)c1cc2ccc3c(Br)c(C4(OC)CCCCC4)[se]c3c2oc1=O` [Compound I-4, Methyl 7-bromo-8-(1-methoxycyclohexyl)-2-oxo-2H-selenopheno[3,2-h]chromene-3-carboxylate], the LD50 at 24 h in data set [1] was 1100 µmol/kg and 548 mg/kg. Further, the IC50 at 24 h in data set [1] came out at 198 ± 2 µM. Moreover, the IC50 is 95 ± 2 µM in data set [2] (MTT); 52 ± 5 µM in [3]; 46 ± 14 µM in [4]; above 201 µM in [5] (Homo sapiens, A549, 72 h); 446 ± 6 µM in data set [6]; 103 ± 4 µM in data set [7]. Besides, the half-inhibitory concentration (IC50) in [8] was 103 ± 5 µM; in [9] (Homo sapiens, SH-SY5Y) it was above 117 µM; in data set [10], 201 ± 5 µM.

Turning to `CCCCCCCCCCOC(=O)c1cc2ccc3c(Br)c(C4(O)CCCCC4)[se]c3c2oc1=O` [Compound I-7], the LD50 at 24 h in data set [1] was > 3300 µmol/kg and > 2000 mg/kg. The IC50 at 24 h in data set [1] was above 164 µM. In addition, the IC50 was 81 ± 2 µM in [2] (MTT); above 164 µM in data set [3]; 48 ± 13 µM in data set [4]; above 164 µM in [5] (Homo sapiens, A549, 72 h); above 164 µM in data set [6]; 152 ± 9 µM in data set [7]. For the same compound, the IC50 is 151 ± 6 µM in data set [8]; above 117 µM in data set [9] (Homo sapiens, SH-SY5Y); above 164 µM in [10].

On to `COC(=O)c1cc2ccc3c(Br)c(CN4CCCCC4)[se]c3c2oc1=O` [Compound I-8, Methyl 7-bromo-2-oxo-8-(piperidin-1-ylmethyl)-2H-selenopheno[3,2-h]chromene-3-carboxylate], for which the 50% lethal dose (LD50) at 24 h in data set [1] was > 3900 µmol/kg and > 2000 mg/kg. In addition, in [1], the IC50 at 24 h was determined as 54 ± 3 µM. The IC50 in [2] (MTT) is above 122 µM; in [3], above 192 µM; in data set [4], 165 ± 5 µM; in [5] (Homo sapiens, A549, 72 h) it was 115 ± 8 µM; in data set [6] it was 46 ± 3 µM; in data set [7] it was above 192 µM. Also, the IC50 is 181 ± 9 µM in [8]; above 192 µM in data set [9] (Homo sapiens, SH-SY5Y); above 117 µM in data set [10].

Take `COC1(c2[se]c3c(ccc4cc(C(=O)O)c(=O)oc43)c2Br)CCCCC1` [Compound I-12, 7-Bromo-8-(1-methoxycyclohexyl)-2-oxo-2H-selenopheno[3,2-h]chromene-3-carboxylic acid]: in data set [1], the LD50 at 24 h was 300 µmol/kg and 134 mg/kg. Also, the IC50 at 24 h in [1] came out at 213 ± 7 µM. For the same compound, the IC50 in data set [2] was 134 ± 6 µM; in data set [3], 51 ± 2 µM; in data set [4], 141 ± 10 µM; in [5] (Homo sapiens, A549, 72 h) it was 61 ± 1 µM; in data set [6] it was above 206 µM; in data set [7], 127 ± 12 µM. Besides, the IC50 in data set [8] was 97 ± 7 µM; in [9] (Homo sapiens, SH-SY5Y), 193 ± 2 µM; in data set [10] it was above 206 µM.

Regarding `CCCCCCCCOC(=O)c1cc2ccc3c(Br)c(C4=CCCCC4)[se]c3c2oc1=O` [Compound I-16, Octyl 7-bromo-8-(cyclohex-1-en-1-yl)-2-oxo-2H-selenopheno[3,2-h]chromene-3-carboxylate], the LD50 at 24 h in data set [1] is 876 mg/kg. Besides, the IC50 at 24 h in [1] was above 177 µM. Also, the IC50 in data set [3] is above 117 µM; in data set [4], above 117 µM; in [5] (Homo sapiens, A549, 72 h), above 117 µM; in data set [6], above 122 µM; in data set [7] it was above 122 µM; in [8] it was above 177 µM. In addition, the IC50 is above 117 µM in data set [9] (Homo sapiens, SH-SY5Y) and above 117 µM in data set [10].

`CC(C)CCC[C@@H](C)[C@H]1CC[C@H]2[C@@H]3CC=C4C[C@@H](OC(=O)c5cc6ccc7c(Br)c(C8=CCCCC8)[se]c7c6oc5=O)CC[C@]4(C)[C@H]3CC[C@]12C` [Compound I-17, (3S,8S,9S,10R,13R,14S,17R)-10,13-Dimethyl-17-((R)-6-methylheptan-2-yl)-2,3,4,7,8,9,10,11,12,13,14,15,16,17-tetradecahydro-1H-cyclopenta[a]phenanthren-3-yl-7-bromo-8-(cyclohex-1-en-1-yl)-2-oxo-2H-selenopheno[3,2-h]chromene-3-carboxylate]: in [1], the LD50 at 24 h was 3000 µmol/kg and 2450 mg/kg. Further, the IC50 at 24 h in data set [1] was above 117 µM. The IC50 in data set [3] is above 117 µM; in data set [4], above 117 µM; in data set [5] (Homo sapiens, A549, 72 h) it was above 117 µM; in data set [8], above 117 µM; in [9] (Homo sapiens, SH-SY5Y), above 117 µM; in data set [10] it was above 117 µM.
